Experimental data as given in article PMC3798130 (Angewandte Chemie (International Ed. in English), 2013).

Assays:
JMJD2E (KDM4E) [1] = target: T1, JMJD2E (KDM4E) (Homo sapiens, UniProt B2RXH2); experiment: MALDI-TOF MS activity assay; type: biochemical; details: 1 hour, 25 °C, pH 7.5, mass gain
T1 sequence (B2RXH2 1-506): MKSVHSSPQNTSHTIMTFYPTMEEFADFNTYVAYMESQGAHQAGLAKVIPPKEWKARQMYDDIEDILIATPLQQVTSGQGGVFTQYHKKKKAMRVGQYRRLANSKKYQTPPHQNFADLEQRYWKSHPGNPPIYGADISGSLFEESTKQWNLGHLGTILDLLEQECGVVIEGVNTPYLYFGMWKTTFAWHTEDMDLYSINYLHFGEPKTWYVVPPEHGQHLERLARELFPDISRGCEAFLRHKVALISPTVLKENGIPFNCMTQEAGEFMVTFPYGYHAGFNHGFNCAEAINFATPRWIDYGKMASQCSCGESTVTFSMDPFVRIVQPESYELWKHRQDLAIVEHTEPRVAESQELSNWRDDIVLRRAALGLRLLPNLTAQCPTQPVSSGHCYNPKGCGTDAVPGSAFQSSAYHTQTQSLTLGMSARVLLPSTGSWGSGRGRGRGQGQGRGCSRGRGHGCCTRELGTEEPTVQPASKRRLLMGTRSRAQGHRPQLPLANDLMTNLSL

JMJD2E (KDM4E) [2] = target: T1, JMJD2E (KDM4E); experiment: Kinetic parameters for reactions of lysine analogue peptides with JMJD2E; type: biochemical; details: MALDI-TOF initial rates

Row | Substance | mass of product greater than substrate peptide (hydroxylation) (JMJD2E (KDM4E) [1]) [Da] | KM, Vmax and kcat compared with other peptides (JMJD2E (KDM4E) [2])
1 | ART-Lys(Me3)-QTAR-Lys(Me/iPr)-STGGKA [H3 Lysine-9(Me/iPr)] | 16 | 
2 | ART-Lys(Me3)-QTAR-Lys(iPr)-STGGKA [H3 Lysine-9(iPr)] | 16 | higher than values for the other three peptides
